Where two headings read alike, the source gives them in different places.
Target: T1, nitrendipine binding (purified sarcolemal vesicles) (Homo sapiens, UniProt Q13936)
T1 construct: purified sarcolemal vesicles in 50 mM tris-HCl; from tissue
Assay: nitrendipine binding assay ([^3 H] nitrendipine, purified sarcolemal vesicles)
Protocol: As stated earlier, the compounds of the present invention have a property that enables them to be used as calcium entry blockers in the treatment of cardiovascular disorders.
In a representative assay, […] of purified sarcolemal vesicles in 50 mM tris-HCl, 10 uM calcium chloride, and […] magnesium chloride at pH 7.4 were incubated with […] [^3 H] nitrendipine (78 Ci/mmol) with or without test compound in a final volume of […] for 3 hours at 25° C. The inhibition constant Ki is determined according to the following equation: [formula] where I50 is the compound concentration that produces 50 percent inhibiton of binding, [L] is ligand concentration, and kd is the affinity constant of the ligand.

[1] = purified sarcolemal vesicles, 50 mM tris-HCl, pH 7.4, 0.23 mM [^3 H] nitrendipine, 3 hours at 25° C., read-out: Ki, Inhibition of Nitrendipine Binding

T1 sequence (Q13936 whole entry): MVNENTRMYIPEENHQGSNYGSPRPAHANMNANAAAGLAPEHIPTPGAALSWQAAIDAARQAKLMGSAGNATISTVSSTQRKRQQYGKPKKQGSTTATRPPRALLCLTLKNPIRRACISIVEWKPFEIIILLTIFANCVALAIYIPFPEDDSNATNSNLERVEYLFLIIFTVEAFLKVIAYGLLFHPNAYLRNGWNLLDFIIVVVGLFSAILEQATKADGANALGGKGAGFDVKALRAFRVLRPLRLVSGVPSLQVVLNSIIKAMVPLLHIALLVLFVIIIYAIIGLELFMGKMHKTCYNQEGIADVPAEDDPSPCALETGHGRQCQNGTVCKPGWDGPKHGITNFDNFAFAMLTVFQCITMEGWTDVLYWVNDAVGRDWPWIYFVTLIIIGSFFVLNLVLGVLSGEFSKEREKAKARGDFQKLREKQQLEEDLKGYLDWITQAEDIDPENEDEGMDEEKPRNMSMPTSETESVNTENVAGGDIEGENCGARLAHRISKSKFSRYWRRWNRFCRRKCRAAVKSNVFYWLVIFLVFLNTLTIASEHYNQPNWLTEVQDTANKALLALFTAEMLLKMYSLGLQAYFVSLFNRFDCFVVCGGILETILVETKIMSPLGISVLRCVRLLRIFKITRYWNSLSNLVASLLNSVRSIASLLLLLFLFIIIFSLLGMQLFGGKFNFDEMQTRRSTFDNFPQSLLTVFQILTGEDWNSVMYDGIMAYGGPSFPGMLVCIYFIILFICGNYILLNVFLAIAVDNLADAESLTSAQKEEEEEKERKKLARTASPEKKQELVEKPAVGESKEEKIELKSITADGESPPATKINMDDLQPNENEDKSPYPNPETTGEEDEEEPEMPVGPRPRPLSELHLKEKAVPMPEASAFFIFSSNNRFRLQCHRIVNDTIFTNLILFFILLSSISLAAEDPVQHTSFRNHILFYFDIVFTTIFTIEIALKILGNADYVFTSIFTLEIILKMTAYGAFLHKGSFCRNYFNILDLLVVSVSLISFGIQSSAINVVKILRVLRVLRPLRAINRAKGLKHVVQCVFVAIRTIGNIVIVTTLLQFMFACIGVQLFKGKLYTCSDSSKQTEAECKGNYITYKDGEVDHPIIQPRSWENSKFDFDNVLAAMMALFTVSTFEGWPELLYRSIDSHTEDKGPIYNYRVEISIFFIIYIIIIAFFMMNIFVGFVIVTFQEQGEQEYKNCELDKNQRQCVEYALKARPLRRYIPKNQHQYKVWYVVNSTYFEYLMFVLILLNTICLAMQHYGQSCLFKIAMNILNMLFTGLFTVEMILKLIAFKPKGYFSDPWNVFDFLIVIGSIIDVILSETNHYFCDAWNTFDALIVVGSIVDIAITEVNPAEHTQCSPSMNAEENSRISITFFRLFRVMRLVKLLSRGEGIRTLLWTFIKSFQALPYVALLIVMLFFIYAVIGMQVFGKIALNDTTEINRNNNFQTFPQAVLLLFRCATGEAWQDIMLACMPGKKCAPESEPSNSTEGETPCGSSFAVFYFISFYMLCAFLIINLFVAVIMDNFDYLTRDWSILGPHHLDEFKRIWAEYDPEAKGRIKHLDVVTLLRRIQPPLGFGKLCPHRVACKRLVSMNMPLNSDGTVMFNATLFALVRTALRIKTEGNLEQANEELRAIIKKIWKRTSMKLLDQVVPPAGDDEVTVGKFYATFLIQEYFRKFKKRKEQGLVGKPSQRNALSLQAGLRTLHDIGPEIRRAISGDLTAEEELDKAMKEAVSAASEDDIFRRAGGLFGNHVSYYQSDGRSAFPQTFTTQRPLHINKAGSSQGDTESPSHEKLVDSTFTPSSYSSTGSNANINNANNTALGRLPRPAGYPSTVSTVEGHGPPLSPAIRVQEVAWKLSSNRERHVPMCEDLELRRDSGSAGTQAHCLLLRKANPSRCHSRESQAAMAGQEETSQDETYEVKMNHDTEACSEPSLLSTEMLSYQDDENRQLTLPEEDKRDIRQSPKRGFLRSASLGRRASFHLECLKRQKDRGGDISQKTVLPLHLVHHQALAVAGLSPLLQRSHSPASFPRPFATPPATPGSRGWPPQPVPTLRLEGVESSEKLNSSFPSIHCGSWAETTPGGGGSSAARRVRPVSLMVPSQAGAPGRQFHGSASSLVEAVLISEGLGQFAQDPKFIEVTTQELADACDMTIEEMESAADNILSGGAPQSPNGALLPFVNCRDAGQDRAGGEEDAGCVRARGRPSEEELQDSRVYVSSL
T1 sequence (P54289 25-944 partner limits assumed): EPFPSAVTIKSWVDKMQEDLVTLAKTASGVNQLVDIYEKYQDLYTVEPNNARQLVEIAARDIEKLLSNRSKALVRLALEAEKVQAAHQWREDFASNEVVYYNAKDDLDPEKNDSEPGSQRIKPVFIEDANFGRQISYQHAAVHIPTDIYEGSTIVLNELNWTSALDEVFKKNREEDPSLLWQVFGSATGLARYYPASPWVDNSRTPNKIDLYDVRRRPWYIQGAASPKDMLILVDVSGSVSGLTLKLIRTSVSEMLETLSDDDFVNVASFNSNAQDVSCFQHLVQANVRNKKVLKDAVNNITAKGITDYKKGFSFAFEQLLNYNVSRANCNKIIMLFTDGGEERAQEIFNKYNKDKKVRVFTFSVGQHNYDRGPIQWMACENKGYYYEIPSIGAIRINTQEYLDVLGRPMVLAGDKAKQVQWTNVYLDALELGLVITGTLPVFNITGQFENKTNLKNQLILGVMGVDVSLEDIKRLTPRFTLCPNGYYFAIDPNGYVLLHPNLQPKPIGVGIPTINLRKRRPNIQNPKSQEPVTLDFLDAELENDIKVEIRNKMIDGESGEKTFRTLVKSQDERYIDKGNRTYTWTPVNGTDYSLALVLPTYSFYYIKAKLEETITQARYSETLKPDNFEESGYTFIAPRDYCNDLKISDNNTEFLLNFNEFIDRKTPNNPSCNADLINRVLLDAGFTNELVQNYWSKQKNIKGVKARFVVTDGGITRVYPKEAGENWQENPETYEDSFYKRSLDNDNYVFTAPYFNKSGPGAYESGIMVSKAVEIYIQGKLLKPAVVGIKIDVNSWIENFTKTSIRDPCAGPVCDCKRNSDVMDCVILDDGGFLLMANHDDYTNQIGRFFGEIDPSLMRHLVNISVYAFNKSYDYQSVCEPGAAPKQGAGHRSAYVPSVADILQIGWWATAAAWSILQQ
T1 sequence (P54289 945-1103 partner limits assumed): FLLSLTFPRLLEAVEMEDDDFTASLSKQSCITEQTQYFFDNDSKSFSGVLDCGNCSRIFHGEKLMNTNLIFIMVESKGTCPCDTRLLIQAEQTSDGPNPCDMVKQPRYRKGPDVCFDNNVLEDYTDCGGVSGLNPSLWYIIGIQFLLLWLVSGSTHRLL
T1 sequence (Q08289 whole entry partner): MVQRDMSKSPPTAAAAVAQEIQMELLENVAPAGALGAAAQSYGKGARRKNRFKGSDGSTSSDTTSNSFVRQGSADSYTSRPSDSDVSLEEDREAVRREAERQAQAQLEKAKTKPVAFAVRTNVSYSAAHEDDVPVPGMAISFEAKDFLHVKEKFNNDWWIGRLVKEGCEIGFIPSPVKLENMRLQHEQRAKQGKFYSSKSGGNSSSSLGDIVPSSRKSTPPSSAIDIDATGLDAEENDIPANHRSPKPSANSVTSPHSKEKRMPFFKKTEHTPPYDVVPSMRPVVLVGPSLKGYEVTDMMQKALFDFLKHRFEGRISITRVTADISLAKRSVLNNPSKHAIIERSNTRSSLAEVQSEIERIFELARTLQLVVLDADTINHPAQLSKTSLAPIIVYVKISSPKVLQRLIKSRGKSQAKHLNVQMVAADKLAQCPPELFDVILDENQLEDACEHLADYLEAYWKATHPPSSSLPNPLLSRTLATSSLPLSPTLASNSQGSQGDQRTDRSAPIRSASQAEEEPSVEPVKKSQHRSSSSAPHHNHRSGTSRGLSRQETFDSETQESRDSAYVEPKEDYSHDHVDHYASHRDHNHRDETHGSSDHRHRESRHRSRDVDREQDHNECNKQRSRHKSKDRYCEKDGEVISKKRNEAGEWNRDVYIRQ

Row | Compound | Ki | Ki [1]
1 | COC(=O)C1C(c2ccccc2)C2(C(=O)OC)C(C)=NC1(C)CC2C[Si](C)(C)C (stereo not drawn) [Example 1, Dimethyl 1,3-dimethyl-5-phenyl-8-[(trimethylsilyl)methyl]-2-azabicyclo[2.2.2]oct-2-ene-4,6-dicarboxylate] | 17 µM | –
2 | COC(=O)C1C(c2ccccc2)C2(C(=O)OC)C(C)=NC1(C)CC2c1ccccc1 (stereo not drawn) [Example 2] | – | 34 µM
3 | COC(=O)C1C(c2ccccc2)C2(C(=O)OC)C(C)=NC1(C)C1CC=CC12 (stereo not drawn) [Example 3, Dimethyl 1,4A,7,8A-tetrahydro-1,3-dimethyl-8-phenyl-1,4-ethano-4H-2-azetidinyl-4,9-dicarboxylate] | – | 61 µM
